Results: patent publication US6967219B2, “Reversing or preventing premature vascular senescence” (Cornell Research Foundation, Inc., priority 2001, dated 2005)

Key:
[1] = test system: Human umbilical vein endothelial cells (HUVEC); experiment: SA β-galactosidase staining of HUVEC plated on glycated collagen (premature senescence); assay type: cell-based; settings: for reduction/reversal of premature senescence across dilutions of glycated collagen: HUVEC on glycated collagen at different dilutions/concentrations of glycated matrix
Procedure: Detection of SA-β-galactosidase was carried out utilizing the histochemical staining method of Dimitri et al, Proc. Natl. Acad. Sci. USA 92, 9363-9367 as modified by Van der Loo, B., et al, Exp. Cell Res. 241, 309-315 (1998). SA-β-galactosidase is a known senescence marker. […] This phenomenon occurred in 12 week and 21 week-old diabetic rats, but was undetectable in age-matched Zucker lean rats (0/24 branches examined).
Human umbilical vein endothelial cells (HUVEC) after four passages were plated on glycated collagen with the addition of 0.1 mM hydroxy-L-arginine vis-a-vis the same concentration of L-arginine. Application was made on day 1, 2 hours after plating. The extent of SA β-galactosidase staining was evaluated on days 3 and 5 of culture on a glycated or native matrix. In addition, to study the reversibility process, HUVEC were plated on glycated collagen for three days (time sufficient to induce premature senescence), and hydroxy-L-arginine was added every 12 hours, starting on day 3, and the cells were examined on day 5.

[2] = test system: patient with type I (alternatively type 2) diabetes mellitus; experiment: Example II: poorly controlled diabetes mellitus patient treated with hydroxy-L-arginine; assay type: in vivo, human; settings: 1-20 mg/kg thrice/day, 6 months later
Procedure: A patient with type I (alternatively, a patient with type 2) diabetes mellitus, past medical history of myocardial infarction, peripheral vascular disease, hypertension, proteinuria and non-healing foot ulcer, is receiving insulin, but patient is poorly compliant. Patient's fasting blood glucose level is 200 mg/dl. Additional laboratory findings include elevated Hgb Alc level (8.5%) as well as one of the following levels of AGE: elevated level of pentosidine (2.3 pmol/mg) or elevated level of Amadori serum albumin (41 U/ml). (In some cases, renal biopsy will be performed, which will directly disclose the deposition of AGE in the renal parenchyma and increased proportion of SA-beta-galactosidase-stained endothelial cells).

[3] = test system: patient diagnosed with Alzheimer's disease; experiment: Example III: patient with Alzheimer's disease treated with hydroxy-L-arginine; assay type: in vivo, human; settings: 1-20 mg/kg thrice/day alone or with antioxidant agents and vitamins; two years later
Procedure: A person with no known medical conditions has been experiencing a sustained loss of short-term memory for the past three years. Their CBC, electrolytes and other plasma parameters of metabolic profile are within normal range. There is no vitamin deficiency, no abnormalities in liver function tests, and no previous history of cerebro-vascular accidents. […] Based on these findings the patient is diagnosed with Alzheimer's disease. Therapy with hydroxy-L-arginine is initiated at doses 1-20 mg/kg thrice/day alone or in combination with antioxidant agents and vitamins (e.g., ascorbate, alpha-tocopherol, vitamin B6, vitamin B12, folate (folic acid), carotenoids, coenzyme Q10, phytoestrogens (including isoflavonoids), selenium, butylated hydroxytoluene (BHT), butylated hydroxyanisole (BHA) and n-3 polyunsaturated fatty acids (PUFA)).

[4] = test system: saphenous vein endothelial cells seeded on artificial vascular graft; experiment: Example VI: artificial vascular graft seeded with endothelial cells cultured with hydroxy-L-arginine, implanted; assay type: in vivo, human; settings: cells cultured with 10-100 μg/ml at 35° C. for 2-3 weeks
Procedure: A person with peripheral vascular disease is undergoing an elective femoral-to-popliteal bypass surgery utilizing an artificial vascular graft. A saphenous vein is obtained to harvest endothelial cells for expansion and seed on the surface of a graft. Expanded endothelial cells are cultured in the medium containing hydroxy-L-arginine, 10-100 μg/ml at 35° C. for 2-3 weeks, and cells are seeded on the graft in the continuous presence of the same concentration of hydroxy-L-arginine. Thus prepared, the vascular graft is implanted.

[5] = test system: saphenous vein endothelial cells seeded on artificial valve; experiment: Example V: artificial heart valve seeded with endothelial cells cultured with hydroxy-L-arginine, implanted; assay type: in vivo, human; settings: cells cultured with 10-100 μg/ml at 35° C. for 2-3 weeks
Procedure: A person with a defective heart valve is being prepared for a surgical replacement of the valve with a prosthetic device. A saphenous vein is obtained to harvest endothelial cells for expansion and seeding on the surface of a artificial valve. Expanded endothelial cells are cultured in the medium containing hydroxy-L-arginine, 10-100 μg/ml at 35° C. for 2-3 weeks and cells are seeded on the valve in the continuous presence of the same concentration of hydroxy-L-arginine. Thus prepared, the artificial valve is implanted.

[6] = test system: patient with end stage renal disease; experiment: Example I: patient with end stage renal disease on chronic hemodialysis treated with hydroxy-L-arginine; assay type: in vivo, human; settings: 1-20 mg/kg thrice/day, 6 months later
Source text: (In some cases, renal biopsy will be performed, which will directly disclose the deposition of AGE in the renal parenchyma and increased proportion of SA-beta-galactosidase-stained endothelial cells). […] In addition, the patient has their arterio-veinous fistula revised 3 times due to clotting and stenosis. The patient is also complaining of a non-healing foot ulcer and intermittent claudication, both signs of peripheral vascular disease.

[7] = test system: patients of Examples I, II and III; experiment: Example IV: other hydroxyguanidines substituted for hydroxy-L-arginine in Examples I, II and III; assay type: in vivo, human; settings: same dosage as in Examples I

Structure (SMILES)	reduction/reversal of premature senescence across dilutions of glycated collagen [1]	blood pressure [2]	coronary angiogram [2]	coronary symptoms [2]	foot ulcer [2]	pentosidine level after treatment ([2]; baseline 2.3 pmol/mg) [pmol/mg]	Amadori serum albumin level after treatment ([2]; baseline 41 U/ml) [U/ml]	symptoms related to the memory loss [3]	development of premature senescence (SA β-galactosidase staining) ([1]; HUVEC grown on glycated collagen, 0.1 mM added to culture medium on day 1, 2 hours after plating, evaluated days 3 and 5)	thrombotic and atheroembolic complications [4]	thrombotic and atheroembolic complications [5]	coronary symptoms [6]	foot ulcer [6]	pentosidine level after treatment ([6]; baseline 2.5 pmol/mg) [pmol/mg]	Amadori serum albumin level after treatment ([6]; baseline 40 U/ml) [U/ml]	blood pressure ([6]; baseline 175/105 mmHg)	results when substituted for hydroxy-L-arginine at the same dosage [7]
N=C(N)NCCC[C@H](N)C(=O)O [L-arginine, reference compound]	failed to reverse premature senescence at higher concentrations of glycated matrix																
N=C(NO)NCCC[C@H](N)C(=O)O [hydroxy-L-arginine, N^ω-hydroxy-L-arginine]	able to reduce premature senescence at all dilutions of glycated collagen	normalization of blood pressure	either no further worsening of stenotic lesions or some degree of improvement	significant subjective improvement	healing of foot ulcer	1.7	30	no deterioration and a partial improvement	completely abolished the development of premature senescence	less thrombotic and atheroembolic complications	less thrombotic and atheroembolic complications	significant subjective improvement	healing of foot ulcer	1.7	30	normalization of blood pressure	
N=C(N)NO [hydroxyguanidine, Hydroxyguanidine]																	Positive results similar to those obtained in Examples I, II and III
